We go through 7 molecules from ChEMBL document CHEMBL3588800, “Novel Bioactive Hybrid Compound Dual Targeting Estrogen Receptor and Histone Deacetylase for the Treatment of Breast Cancer” (J Med Chem, 2015).

Structures are written as SMILES. Where only a bound is given, the exact number is not on record here.

One experiment has as its system MCF7. The experiment is described as follows: cells. Type of experiment: functional, cell-based. The settings on record: Homo sapiens, MCF7, 72 h.
Experiment [1] has as its target T1, Estrogen receptor (Homo sapiens) (UniProt P03372).
T1 sequence (whole entry): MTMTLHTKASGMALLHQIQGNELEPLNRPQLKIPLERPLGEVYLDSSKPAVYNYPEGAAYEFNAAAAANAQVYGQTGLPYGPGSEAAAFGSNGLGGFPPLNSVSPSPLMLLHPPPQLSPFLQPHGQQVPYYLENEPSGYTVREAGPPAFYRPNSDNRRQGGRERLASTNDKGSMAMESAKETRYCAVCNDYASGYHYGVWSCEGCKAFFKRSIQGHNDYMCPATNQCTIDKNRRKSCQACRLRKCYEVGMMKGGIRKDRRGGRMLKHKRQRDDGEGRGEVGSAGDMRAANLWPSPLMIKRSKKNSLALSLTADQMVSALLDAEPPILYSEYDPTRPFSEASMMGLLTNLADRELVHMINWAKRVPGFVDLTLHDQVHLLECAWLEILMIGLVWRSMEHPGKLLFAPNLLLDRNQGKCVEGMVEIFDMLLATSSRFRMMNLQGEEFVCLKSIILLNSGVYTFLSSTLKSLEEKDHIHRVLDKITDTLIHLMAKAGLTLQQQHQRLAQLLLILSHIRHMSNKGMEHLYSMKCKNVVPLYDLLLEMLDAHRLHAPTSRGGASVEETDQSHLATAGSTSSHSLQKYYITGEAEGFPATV
As to the kind of experiment: Agonist activity at ER-alpha (unknown origin) transfected in HEK293T cells assessed as stimulation of transcriptional activity after 24 hrs by luciferase reporter gene assay relative to 17-beta estradiol. The class given is cell-based. Conditions: HEK-293T; call rule not given here.

The target in experiment [2] is T2, Estrogen receptor beta (Homo sapiens, UniProt Q92731). As to the kind of experiment: Agonist activity at ER-beta (unknown origin) transfected in HEK293T cells assessed as stimulation of transcriptional activity after 24 hrs by luciferase reporter gene assay relative to 17-beta estradiol. Type of experiment: cell-based. Conditions: HEK-293T. A general note: In a reporter assay the amount or activity of a reporter protein is the signal.
T2 sequence (Q92731 whole entry): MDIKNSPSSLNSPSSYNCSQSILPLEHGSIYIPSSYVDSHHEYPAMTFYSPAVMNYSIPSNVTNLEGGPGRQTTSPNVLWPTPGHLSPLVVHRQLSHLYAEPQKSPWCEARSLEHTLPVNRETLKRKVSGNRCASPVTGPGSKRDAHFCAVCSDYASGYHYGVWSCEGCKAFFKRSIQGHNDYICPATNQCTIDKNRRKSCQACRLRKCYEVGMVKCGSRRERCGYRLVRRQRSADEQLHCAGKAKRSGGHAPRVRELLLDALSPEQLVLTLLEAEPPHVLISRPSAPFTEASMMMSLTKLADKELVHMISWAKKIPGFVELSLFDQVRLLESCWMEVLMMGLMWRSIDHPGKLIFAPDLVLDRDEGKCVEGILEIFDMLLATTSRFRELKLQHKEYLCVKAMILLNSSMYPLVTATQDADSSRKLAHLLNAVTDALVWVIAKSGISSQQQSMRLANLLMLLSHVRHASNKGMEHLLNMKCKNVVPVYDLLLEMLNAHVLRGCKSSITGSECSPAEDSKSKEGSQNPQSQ

For experiment [3], the target named is T1, Estrogen receptor (Homo sapiens). As to the kind of experiment: Antagonist activity at ER-alpha (unknown origin) transfected in HEK293T cells assessed as inhibition of transcriptional activity after 24 hrs by luciferase reporter gene assay relative to 17-beta estradiol. Conditions: HEK-293T. Type of experiment: cell-based.
Experiment [4] concerns the target T3, Estrogen receptor (Homo sapiens, UniProt P03372).
T3 sequence (P03372 whole entry): T1 sequence (whole entry)
As to the kind of experiment: Agonist activity at ER-alpha (unknown origin) transfected in HEK293T cells assessed as stimulation of transcriptional activity after 24 hrs by luciferase reporter gene assay. Type of experiment: cell-based, HEK-293T.

Experiment [5] concerns the target T2, Estrogen receptor beta. The experiment is described as follows: Antagonist activity at ER-beta (unknown origin) transfected in HEK293T cells assessed as inhibition of transcriptional activity after 24 hrs by luciferase reporter gene assay relative to 17-beta estradiol. The class given is cell-based. Conditions: HEK-293T.
The next experiment has as its system Vero. As to the kind of experiment: cells. The settings on record: Chlorocebus sabaeus, 72 h. The class given is ADME, cell-based.
For the next experiment, the system named is DU-145. The experiment is described as follows: cells. Type of experiment: functional, cell-based. The settings on record: Homo sapiens, DU-145, 72 h.
The target of experiment [6] is T3, Estrogen receptor. As to the kind of experiment: Antagonist activity at ER-alpha (unknown origin) transfected in HEK293T cells assessed as inhibition of transcriptional activity after 24 hrs by luciferase reporter gene assay. Type of experiment: cell-based, HEK-293T.
Experiment [7] deals with T2, Estrogen receptor beta. As to the kind of experiment: Agonist activity at ER-beta (unknown origin) transfected in HEK293T cells assessed as stimulation of transcriptional activity after 24 hrs by luciferase reporter gene assay. Type of experiment: cell-based, HEK-293T.
The target in a further experiment is Histone deacetylase 1 (Homo sapiens, UniProt Q13547). As to the kind of experiment: Inhibition of human recombinant HDAC1 after 15 mins by fluorogenic assay.
Chain of Histone deacetylase 1 (Q13547 whole entry): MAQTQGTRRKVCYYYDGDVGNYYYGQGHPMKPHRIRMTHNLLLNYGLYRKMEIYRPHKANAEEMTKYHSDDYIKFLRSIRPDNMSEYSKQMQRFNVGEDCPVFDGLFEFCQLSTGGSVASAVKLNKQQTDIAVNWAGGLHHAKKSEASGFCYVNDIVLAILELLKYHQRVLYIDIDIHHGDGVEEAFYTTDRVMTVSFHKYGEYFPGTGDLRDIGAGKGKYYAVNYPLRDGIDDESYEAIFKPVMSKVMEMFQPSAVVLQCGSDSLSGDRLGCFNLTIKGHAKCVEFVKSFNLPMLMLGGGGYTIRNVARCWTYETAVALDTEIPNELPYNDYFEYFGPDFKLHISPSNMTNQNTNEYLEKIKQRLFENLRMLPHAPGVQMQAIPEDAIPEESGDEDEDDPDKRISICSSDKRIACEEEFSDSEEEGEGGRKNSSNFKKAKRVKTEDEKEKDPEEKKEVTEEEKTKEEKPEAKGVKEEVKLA
Experiment [8] deals with T4, Protein deacetylase HDAC6 (Homo sapiens, UniProt Q9UBN7).
T4 sequence (Q9UBN7 whole entry): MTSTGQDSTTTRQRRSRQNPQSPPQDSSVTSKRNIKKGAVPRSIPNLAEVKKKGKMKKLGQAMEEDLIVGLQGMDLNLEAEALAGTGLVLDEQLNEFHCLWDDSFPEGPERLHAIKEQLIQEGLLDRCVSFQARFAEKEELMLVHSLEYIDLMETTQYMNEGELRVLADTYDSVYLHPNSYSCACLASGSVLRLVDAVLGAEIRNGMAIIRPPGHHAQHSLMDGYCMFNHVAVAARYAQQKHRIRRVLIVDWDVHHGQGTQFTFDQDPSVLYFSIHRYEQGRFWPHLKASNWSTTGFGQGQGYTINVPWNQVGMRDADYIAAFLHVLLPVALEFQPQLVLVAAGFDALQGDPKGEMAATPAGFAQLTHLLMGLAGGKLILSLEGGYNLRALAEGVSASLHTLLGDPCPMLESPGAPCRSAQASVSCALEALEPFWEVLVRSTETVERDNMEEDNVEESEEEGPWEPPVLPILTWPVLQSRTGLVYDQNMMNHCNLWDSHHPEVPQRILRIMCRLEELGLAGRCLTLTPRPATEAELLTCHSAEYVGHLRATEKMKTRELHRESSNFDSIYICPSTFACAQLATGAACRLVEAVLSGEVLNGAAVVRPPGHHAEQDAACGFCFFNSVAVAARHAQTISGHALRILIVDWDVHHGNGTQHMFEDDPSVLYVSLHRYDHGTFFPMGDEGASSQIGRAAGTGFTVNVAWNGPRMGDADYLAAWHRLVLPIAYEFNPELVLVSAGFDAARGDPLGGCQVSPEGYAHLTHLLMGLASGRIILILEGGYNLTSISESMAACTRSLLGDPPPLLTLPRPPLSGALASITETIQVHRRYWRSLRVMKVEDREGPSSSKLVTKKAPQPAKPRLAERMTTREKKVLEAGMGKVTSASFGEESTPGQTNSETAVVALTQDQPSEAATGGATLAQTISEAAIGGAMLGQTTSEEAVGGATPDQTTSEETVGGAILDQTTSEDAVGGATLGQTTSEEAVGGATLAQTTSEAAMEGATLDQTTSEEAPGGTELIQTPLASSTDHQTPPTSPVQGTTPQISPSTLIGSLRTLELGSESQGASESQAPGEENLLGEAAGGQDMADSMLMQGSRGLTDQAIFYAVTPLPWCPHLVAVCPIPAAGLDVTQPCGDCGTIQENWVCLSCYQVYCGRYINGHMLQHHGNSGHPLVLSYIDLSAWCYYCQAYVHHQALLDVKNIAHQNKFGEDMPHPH
As to the kind of experiment: Inhibition of human recombinant HDAC6 after 15 mins by fluorogenic assay. Conditions: read-out: IC50.

Experiment [9] addresses T3, Estrogen receptor. As to the kind of experiment: Binding affinity to human ER-alpha ligand binding domain after 2 hrs by competitive fluorometric binding assay.
Experiment [10] has as its target T2, Estrogen receptor beta. As to the kind of experiment: Binding affinity to human ER-beta ligand binding domain after 2 hrs by competitive fluorometric binding assay.

On to `COC(=O)CCCCCCC(=O)Nc1cccc(OS(=O)(=O)C2CC3OC2C(c2ccc(O)cc2)=C3c2ccc(O)cc2)c1` (stereo unspecified), for which the IC50 in the experiment with MCF7 is 19.1 µM; with Vero, more than 100 µM; in the experiment with DU-145, 19.3 µM. Also, the Efficacy in experiment [1] was 16%; on Estrogen receptor beta [2] it was 3%; in experiment [3], 111%; at Estrogen receptor beta [5], 91%. For the same molecule, the EC50 on Estrogen receptor [4] came out at 0.001 µM.
In the case of `O=C(O)CCCCCCC(=O)Nc1ccc(C2=C(c3ccc(O)cc3)C3CC(S(=O)(=O)Oc4ccc5ccccc5c4)C2O3)cc1` (stereo unspecified), the IC50 was 18.9 µM in the experiment with MCF7; 0.92 µM on Estrogen receptor [6]; 0.282 µM at Histone deacetylase 1 (read-out: IC50); more than 100 µM in the experiment with Vero; 8.11 µM in experiment [8]; 58.3 µM in the experiment with DU-145. The Efficacy was -21% in [1], 19% at Estrogen receptor beta [2], 45% in experiment [3] and 94% on Estrogen receptor beta [5]. Further, the EC50 on Estrogen receptor beta [7] is 0.53 µM.
For `O=C(O)CCCCCCC(=O)Nc1ccc(C2=C(c3ccc(O)cc3)C3CC(S(=O)(=O)Oc4ccccc4)C2O3)cc1` (racemic), the IC50 in the experiment with MCF7 was 66.4 µM; on Estrogen receptor [6] it was 1.21 µM; in the experiment on Vero it was more than 100 µM; with DU-145, more than 100 µM. In addition, the Efficacy in experiment [1] was -13%; at Estrogen receptor beta [2] it was 36%; in experiment [3], 36%; at Estrogen receptor beta [5], 97%. For the same molecule, at Estrogen receptor beta [7], the EC50 came to 0.93 µM. Besides, the results for the Ki on Estrogen receptor [9] and on Estrogen receptor beta [10] were 0.112 µM and 0.654 µM, respectively.
As to `COc1ccc(OS(=O)(=O)C2CC3OC2C(c2ccc(NC(=O)CCCCCCC(=O)O)cc2)=C3c2ccc(O)cc2)cc1` (racemic), the IC50 in the experiment with MCF7 was 15.3 µM; at Estrogen receptor [6], 116 µM; at Histone deacetylase 1, “Not Active”; with Vero, more than 100 µM; in experiment [8] it was 4.17 µM; with DU-145, 38.6 µM. Also, the Efficacy in experiment [1] amounted to 27%; at Estrogen receptor beta [2], 5%; in experiment [3], 40%; at Estrogen receptor beta [5], 137%.
Consider `Cc1ccccc1OS(=O)(=O)C1CC2OC1C(c1ccc(NC(=O)CCCCCCC(=O)O)cc1)=C2c1ccc(O)cc1` (racemic), for which the IC50 in the experiment with MCF7 was 7.9 µM; at Estrogen receptor [6] it was 0.46 µM; at Histone deacetylase 1 (read-out: IC50) it was 0.022 µM; in the experiment with Vero, more than 100 µM; in [8], 5.01 µM; in the experiment with DU-145 it was more than 100 µM. Besides, the Efficacy in [1] was -3%; on Estrogen receptor beta [2], 24%; in experiment [3], 43%; at Estrogen receptor beta [5], 117%. In addition, the EC50 on Estrogen receptor beta [7] was 0.38 µM.
Regarding `O=C(O)CCCCCCC(=O)Nc1ccc(C2=C(c3ccc(O)cc3)C3CC(S(=O)(=O)Oc4ccc(C(F)(F)F)cc4)C2O3)cc1` (racemic), the IC50 is 24 µM with MCF7; 0.79 µM at Estrogen receptor [6]; “Not Active” on Histone deacetylase 1; more than 100 µM in the experiment on Vero; 0.648 µM in [8]; 77 µM in the experiment with DU-145. The Efficacy in experiment [1] was -51%; at Estrogen receptor beta [2], -12%; in [3], 10%; on Estrogen receptor beta [5] it was 136%.
In the case of `Cc1cccc(C)c1OS(=O)(=O)C1CC2OC1C(c1ccc(NC(=O)CCCCCCC(=O)O)cc1)=C2c1ccc(O)cc1` (racemic), the IC50 in the experiment on MCF7, in the experiment with Vero and in the experiment with DU-145 was more than 100 µM each time. The Efficacy in [1] was 61%; at Estrogen receptor beta [2], -8%; in experiment [3], 127%; on Estrogen receptor beta [5], 87%. Further, the EC50 at Estrogen receptor [4] is 0.32 µM. In addition, the Ki at Estrogen receptor [9] is more than 5 µM; on Estrogen receptor beta [10], 0.971 µM.

What is called IC50 is the midpoint of a concentration-inhibition curve. The EC50 is the concentration needed to bring the measured effect to its halfway point. Broadly, the Ki is the equilibrium dissociation constant of an inhibitor or competing ligand from its target. Lower therefore signals a stronger hold on the target.
